Experimental data as given in publication PMC10046369, “Low-Affinity/High-Selectivity Dopamine Transport Inhibition Sufficient to Rescue Cognitive Functions in the Aging Rat” (Biomolecules, 2023).

Experiments:
Assay in all cases: biochemical
Set-up in all cases: KINOMEscan competition binding panel, per cent of control
Conditions in all cases: read-out: %Ctrl @ 2800nM
RIPK4 = RIPK4 (Homo sapiens, UniProt P57078)
How it was run: (§1)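 Values are expressed as percent of control, calculated as ((test − positive control)/(negative control − positive control)) × 100, so lower numbers mean stronger hits. Binding was measured by KINOMEscan competition assay in a 450-kinase human panel including disease mutants, using the contractor's validated protocol.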

CAMK2D = CAMK2D (Homo sapiens, UniProt Q13557)
How it was run: as §1

MYO3B = MYO3B (Homo sapiens, UniProt Q8WXR4)
How it was run: as §1

KIT(V559D,V654A) = KIT(V559D,V654A) (Homo sapiens, UniProt P10721, V559D/V654A)
How it was run: as §1

PIP5K2B = biological target: T1, PIP5K2B (Homo sapiens, UniProt P78356)
T1 construct: gene PIP4K2B
How it was run: as §1

GRK4 = GRK4 (Homo sapiens, UniProt P32298)
How it was run: as §1

PAK4 = PAK4 (Homo sapiens, UniProt O96013)
How it was run: as §1

CAMK2A = CAMK2A (Homo sapiens, UniProt Q9UQM7)
How it was run: as §1

[1] = biological target: T2, RSK1(Kin.Dom.1-N-terminal) (Homo sapiens, UniProt Q15418)
T2 construct: gene RPS6KA1; Kin.Dom.1-N-terminal
How it was run: as §1

EIF2AK1 = EIF2AK1 (Homo sapiens, UniProt Q9BQI3)
How it was run: as §1

PDGFRA = PDGFRA (Homo sapiens, UniProt P16234)
How it was run: as §1

DLK = biological target: T3, DLK (Homo sapiens, UniProt Q12852)
T3 construct: gene MAP3K12
How it was run: as §1

[2] = biological target: T4, RPS6KA4(Kin.Dom.1-N-terminal) (Homo sapiens, UniProt O75676)
T4 construct: Kin.Dom.1-N-terminal
How it was run: as §1

TRKB = biological target: T5, TRKB (Homo sapiens, UniProt Q16620)
T5 construct: gene NTRK2
How it was run: as §1

PRKCI = PRKCI (Homo sapiens, UniProt P41743)
How it was run: as §1

NEK2 = NEK2 (Homo sapiens, UniProt P51955)
How it was run: as §1

PAK7 = biological target: T6, PAK7 (Homo sapiens, UniProt Q9P286)
T6 construct: gene PAK5
How it was run: as §1

CHEK2 = CHEK2 (Homo sapiens, UniProt O96017)
How it was run: as §1

GRK3 = GRK3 (Homo sapiens, UniProt P35626)
How it was run: as §1

SRC = SRC (Homo sapiens, UniProt P12931)
How it was run: as §1

SRPK3 = SRPK3 (Homo sapiens, UniProt Q9UPE1)
How it was run: as §1

[3] = biological target: T7, RSK4(Kin.Dom.2-C-terminal) (Homo sapiens, UniProt Q9UK32)
T7 construct: gene RPS6KA6; Kin.Dom.2-C-terminal
How it was run: as §1

DYRK1A = DYRK1A (Homo sapiens, UniProt Q13627)
How it was run: as §1

NEK9 = NEK9 (Homo sapiens, UniProt Q8TD19)
How it was run: as §1

CSNK1E = CSNK1E (Homo sapiens, UniProt P49674)
How it was run: as §1

AURKC = AURKC (Homo sapiens, UniProt Q9UQB9)
How it was run: as §1

Sequence of CAMK2A (Q9UQM7 whole entry): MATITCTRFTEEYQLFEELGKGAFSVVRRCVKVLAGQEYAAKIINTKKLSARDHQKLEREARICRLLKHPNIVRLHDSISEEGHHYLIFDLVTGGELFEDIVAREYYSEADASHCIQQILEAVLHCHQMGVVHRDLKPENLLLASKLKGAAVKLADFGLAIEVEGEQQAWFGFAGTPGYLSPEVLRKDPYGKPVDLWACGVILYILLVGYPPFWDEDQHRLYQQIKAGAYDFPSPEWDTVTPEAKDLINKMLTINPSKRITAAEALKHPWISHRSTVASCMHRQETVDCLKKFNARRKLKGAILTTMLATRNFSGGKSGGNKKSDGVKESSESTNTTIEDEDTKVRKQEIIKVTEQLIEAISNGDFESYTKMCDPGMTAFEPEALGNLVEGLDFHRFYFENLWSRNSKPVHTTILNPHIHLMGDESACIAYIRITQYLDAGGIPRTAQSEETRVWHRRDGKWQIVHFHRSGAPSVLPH
Sequence of SRC (P12931 whole entry): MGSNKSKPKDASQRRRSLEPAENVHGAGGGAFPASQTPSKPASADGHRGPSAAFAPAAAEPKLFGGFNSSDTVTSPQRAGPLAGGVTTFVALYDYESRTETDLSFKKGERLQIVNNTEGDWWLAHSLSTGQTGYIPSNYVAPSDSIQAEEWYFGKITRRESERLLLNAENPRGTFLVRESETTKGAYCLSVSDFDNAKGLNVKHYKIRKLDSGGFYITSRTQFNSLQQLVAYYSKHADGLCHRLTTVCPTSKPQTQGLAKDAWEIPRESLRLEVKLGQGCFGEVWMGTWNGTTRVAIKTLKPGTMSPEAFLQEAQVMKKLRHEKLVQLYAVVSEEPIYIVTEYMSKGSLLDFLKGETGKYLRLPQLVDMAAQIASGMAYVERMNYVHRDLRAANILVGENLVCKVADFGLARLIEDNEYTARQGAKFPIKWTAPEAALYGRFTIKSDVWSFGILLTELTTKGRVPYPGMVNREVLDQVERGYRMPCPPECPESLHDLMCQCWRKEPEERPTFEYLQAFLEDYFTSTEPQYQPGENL
Sequence of GRK4 (P32298 whole entry): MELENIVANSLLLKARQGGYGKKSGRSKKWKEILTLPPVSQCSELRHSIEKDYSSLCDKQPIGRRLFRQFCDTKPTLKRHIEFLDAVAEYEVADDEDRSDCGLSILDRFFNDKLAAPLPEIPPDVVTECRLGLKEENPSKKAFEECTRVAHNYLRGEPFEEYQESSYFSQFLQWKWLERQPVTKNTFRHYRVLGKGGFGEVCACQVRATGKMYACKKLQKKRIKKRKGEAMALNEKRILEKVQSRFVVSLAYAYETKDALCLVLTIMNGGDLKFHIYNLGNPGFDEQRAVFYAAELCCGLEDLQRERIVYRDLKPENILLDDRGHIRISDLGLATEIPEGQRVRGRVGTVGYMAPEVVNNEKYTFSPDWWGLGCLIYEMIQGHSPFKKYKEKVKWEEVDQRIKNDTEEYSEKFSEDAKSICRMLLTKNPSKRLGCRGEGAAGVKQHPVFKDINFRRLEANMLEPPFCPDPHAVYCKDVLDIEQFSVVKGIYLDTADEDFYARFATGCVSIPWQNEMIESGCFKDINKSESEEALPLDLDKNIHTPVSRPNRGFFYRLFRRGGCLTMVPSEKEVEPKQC
Sequence of NEK9 (Q8TD19 whole entry): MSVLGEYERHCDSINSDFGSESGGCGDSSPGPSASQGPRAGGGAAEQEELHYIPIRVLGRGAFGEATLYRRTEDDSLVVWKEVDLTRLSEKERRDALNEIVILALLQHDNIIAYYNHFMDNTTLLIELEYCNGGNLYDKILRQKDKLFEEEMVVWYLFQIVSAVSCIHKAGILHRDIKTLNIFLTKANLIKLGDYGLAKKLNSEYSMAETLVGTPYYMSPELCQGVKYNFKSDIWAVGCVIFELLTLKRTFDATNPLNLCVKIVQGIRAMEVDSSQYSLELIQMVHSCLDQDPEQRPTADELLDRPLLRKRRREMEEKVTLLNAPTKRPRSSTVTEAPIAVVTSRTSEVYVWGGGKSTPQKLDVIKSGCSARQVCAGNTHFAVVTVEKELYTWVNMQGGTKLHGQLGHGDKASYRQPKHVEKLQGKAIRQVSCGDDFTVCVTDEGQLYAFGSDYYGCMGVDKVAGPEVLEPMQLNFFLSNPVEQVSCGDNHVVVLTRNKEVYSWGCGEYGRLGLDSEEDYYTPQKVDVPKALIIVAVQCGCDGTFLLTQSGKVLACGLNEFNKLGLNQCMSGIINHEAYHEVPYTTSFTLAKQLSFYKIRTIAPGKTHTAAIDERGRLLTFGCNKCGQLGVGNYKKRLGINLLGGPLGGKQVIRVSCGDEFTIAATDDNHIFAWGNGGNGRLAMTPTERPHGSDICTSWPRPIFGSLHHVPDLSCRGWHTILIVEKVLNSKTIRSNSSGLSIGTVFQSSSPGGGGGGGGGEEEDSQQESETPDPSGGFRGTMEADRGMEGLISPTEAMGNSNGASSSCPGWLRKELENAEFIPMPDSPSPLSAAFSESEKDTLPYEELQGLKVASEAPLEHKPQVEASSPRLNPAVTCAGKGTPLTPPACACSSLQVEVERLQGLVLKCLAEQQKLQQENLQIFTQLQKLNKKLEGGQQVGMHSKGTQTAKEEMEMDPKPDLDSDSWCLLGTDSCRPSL
Sequence of CSNK1E (P49674 whole entry): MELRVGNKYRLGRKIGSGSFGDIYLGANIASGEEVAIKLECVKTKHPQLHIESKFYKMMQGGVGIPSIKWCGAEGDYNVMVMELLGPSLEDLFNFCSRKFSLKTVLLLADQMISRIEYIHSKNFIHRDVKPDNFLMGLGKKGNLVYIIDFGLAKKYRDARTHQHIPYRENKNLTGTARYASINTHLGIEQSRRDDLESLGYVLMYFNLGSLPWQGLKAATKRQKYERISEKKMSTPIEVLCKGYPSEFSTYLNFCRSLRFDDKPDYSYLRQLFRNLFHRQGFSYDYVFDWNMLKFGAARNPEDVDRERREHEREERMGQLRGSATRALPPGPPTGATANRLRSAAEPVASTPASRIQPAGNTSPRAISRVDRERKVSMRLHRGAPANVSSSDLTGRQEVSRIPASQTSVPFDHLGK
T1 sequence (P78356 whole entry): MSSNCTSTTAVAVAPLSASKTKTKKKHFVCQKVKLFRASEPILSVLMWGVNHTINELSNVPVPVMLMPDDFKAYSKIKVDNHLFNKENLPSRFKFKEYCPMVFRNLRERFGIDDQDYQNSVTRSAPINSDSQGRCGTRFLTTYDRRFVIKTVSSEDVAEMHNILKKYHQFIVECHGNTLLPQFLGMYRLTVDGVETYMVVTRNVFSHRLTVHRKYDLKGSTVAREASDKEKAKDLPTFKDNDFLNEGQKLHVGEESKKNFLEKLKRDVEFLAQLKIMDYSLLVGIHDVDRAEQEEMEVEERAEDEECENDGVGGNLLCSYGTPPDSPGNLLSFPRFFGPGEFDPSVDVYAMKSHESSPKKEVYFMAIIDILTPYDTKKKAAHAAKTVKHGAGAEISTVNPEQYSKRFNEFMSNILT
Sequence of PAK4 (O96013 whole entry): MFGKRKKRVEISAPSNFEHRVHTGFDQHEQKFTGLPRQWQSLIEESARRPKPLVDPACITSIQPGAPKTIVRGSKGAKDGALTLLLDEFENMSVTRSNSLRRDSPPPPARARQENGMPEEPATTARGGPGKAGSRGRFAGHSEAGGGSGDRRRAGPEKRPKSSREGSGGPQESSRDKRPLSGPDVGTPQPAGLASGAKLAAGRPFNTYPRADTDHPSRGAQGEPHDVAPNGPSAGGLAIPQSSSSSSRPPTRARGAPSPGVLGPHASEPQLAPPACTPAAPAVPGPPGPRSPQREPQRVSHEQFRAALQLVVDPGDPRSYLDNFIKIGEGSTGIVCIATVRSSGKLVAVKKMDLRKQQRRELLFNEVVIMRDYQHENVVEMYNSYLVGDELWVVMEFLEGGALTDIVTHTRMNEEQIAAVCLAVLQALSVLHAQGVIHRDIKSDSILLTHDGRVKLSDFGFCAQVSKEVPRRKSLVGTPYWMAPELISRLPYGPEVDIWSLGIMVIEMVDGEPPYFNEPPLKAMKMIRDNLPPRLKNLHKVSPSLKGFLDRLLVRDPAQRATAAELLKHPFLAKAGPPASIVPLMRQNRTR
Sequence of PRKCI (P41743 whole entry): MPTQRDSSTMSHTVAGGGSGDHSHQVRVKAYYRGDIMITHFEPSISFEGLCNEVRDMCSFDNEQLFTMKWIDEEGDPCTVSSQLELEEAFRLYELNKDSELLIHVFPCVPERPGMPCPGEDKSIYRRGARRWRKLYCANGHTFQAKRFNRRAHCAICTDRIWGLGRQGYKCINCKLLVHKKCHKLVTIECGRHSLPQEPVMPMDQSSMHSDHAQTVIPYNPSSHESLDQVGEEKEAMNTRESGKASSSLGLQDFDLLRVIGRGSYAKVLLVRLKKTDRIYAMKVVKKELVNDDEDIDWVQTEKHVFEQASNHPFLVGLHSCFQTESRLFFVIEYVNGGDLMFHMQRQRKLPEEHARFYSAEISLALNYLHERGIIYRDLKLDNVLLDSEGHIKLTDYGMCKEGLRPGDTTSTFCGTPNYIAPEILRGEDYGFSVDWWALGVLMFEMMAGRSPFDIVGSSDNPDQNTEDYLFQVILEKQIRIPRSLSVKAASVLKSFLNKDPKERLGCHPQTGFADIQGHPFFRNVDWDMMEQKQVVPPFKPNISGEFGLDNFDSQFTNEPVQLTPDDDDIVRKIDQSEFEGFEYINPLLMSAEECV
Sequence of AURKC (Q9UQB9 whole entry): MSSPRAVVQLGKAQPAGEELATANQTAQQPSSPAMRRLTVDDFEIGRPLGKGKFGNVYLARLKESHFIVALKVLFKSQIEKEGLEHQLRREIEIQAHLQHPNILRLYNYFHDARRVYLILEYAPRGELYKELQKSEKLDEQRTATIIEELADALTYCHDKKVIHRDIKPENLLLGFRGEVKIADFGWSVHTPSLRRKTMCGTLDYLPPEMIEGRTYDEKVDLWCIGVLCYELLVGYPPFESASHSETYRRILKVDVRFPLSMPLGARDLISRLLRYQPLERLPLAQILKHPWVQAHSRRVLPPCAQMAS

[O-][S@@+](Cc1cncs1)C(c1ccccc1)c1ccccc1 [S-CE-123, (S)-5-((Benzhydrylsulfinyl)Methyl)Thiazole]
remaining binding at 2.8 µM (RIPK4): 97% | remaining binding at 2.8 µM (CAMK2D): 88% | remaining binding at 2.8 µM (MYO3B): 52% | remaining binding at 2.8 µM (KIT(V559D,V654A)): 100% | remaining binding at 2.8 µM (PIP5K2B): 100% | remaining binding at 2.8 µM (GRK4): 73% | remaining binding at 2.8 µM (PAK4): 98% | remaining binding at 2.8 µM (CAMK2A): 93% | remaining binding at 2.8 µM [1]: 80% | remaining binding at 2.8 µM (EIF2AK1): 100% | remaining binding at 2.8 µM (PDGFRA): 98% | remaining binding at 2.8 µM (DLK): 100% | remaining binding at 2.8 µM [2]: 100% | remaining binding at 2.8 µM (TRKB): 100% | remaining binding at 2.8 µM (PRKCI): 100% | remaining binding at 2.8 µM (NEK2): 96% | remaining binding at 2.8 µM (PAK7): 98% | remaining binding at 2.8 µM (CHEK2): 78% | remaining binding at 2.8 µM (GRK3): 100% | remaining binding at 2.8 µM (SRC): 100% | remaining binding at 2.8 µM (SRPK3): 76% | remaining binding at 2.8 µM [3]: 94% | remaining binding at 2.8 µM (DYRK1A): 96% | remaining binding at 2.8 µM (NEK9): 100% | remaining binding at 2.8 µM (CSNK1E): 96% | remaining binding at 2.8 µM (AURKC): 100%
